Results from US12721894B2, “Method and system for applying pulsed electric fields with high uniformity using charged ring structures” (The Phantom Laboratory, Incorporated, priority 2020, dated 2026).

Experiments:
[1] = tested on: voltage gated sodium channel (VGSC); experiment: Immunohistochemical labeling of VGSC in 4T1 homografts; format: in vivo, mouse; conditions: 1 and 2 days after treating with paclitaxel; FIG. 8
Text: FIGS. 5A-5C depict the immunohistochemical labeling of voltage gated sodium channel (VGSC) in 4T1 homografts before (FIG. 5A) and after (FIG. 5B) a single 2-day treatment with TOL. Nuclei are counterstained with DRAQ5™ fluorescent probe. […] Low power calibration bar in FIG. 5B is 50 μm and the high power calibration bar in the inset is 25 μm. […] This observation may explain, in part the loss of TOL's efficacy that is observed after the first 2 days of treatment.
FIGS. 8A-8D depicts the immunohistochemical labeling of VGSC in 4T1 homografts before (FIG. 8A), 1 (FIG. 8B) and 2 days (FIG. 8C) after treating with paclitaxel. Nuclei are counterstained with DRAQ5. […] Low power calibration bar in FIG. 8B is 50 μm and the high power calibration bar in the inset in FIG. 8C is 25 μm. […] It is noted that there is a progressive reduction of VGSC labeling but not in the number of cells that express the highest levels of VGSC. […] The decrease in expression of VGSC is likely to contribute in the reduced efficacy of TOL when used concurrently with paclitaxel.

[2] = tested on: 4T1 murine breast cancer cells; experiment: Ectopic 4T1 homografts in BALBc mice: tumor size and survival after TOL; format: in vivo, mouse; conditions: paclitaxel 20 mg/kg i.p. post-inoculation day 5; TOL: digoxin 3 mg/kg x8 + 4x30 min PEF 18 V/m on 2 successive days; n=12; FIG. 7
Method: FIG. 4 illustrates the average size of 4T1 homographs seen before and after each single treatment with TOL in which the duration of each of four exposures to PEFs of 18 V/m varied from 5-60 minutes (n=15). […] Further increase in stimulation duration had less of an effect on tumor reduction. Optimum tumor reduction is observed when the mice are exposed to a PEF for 30 minutes, or a range of exceeding 15 minutes and less than 60 minutes.
FIG. 6 depicts in vivo validation of the therapeutic efficacy of pulsed electric fields (PEFs) inducing osmotic lysis in a breast cancer mouse model. Ectopic homografts of 4T1 murine breast cancer cells were established in female, immune competent BALBc mice (n=12). The “TOL” group was injected with digoxin (7 mg/kg) and then exposed to the PEFs generated by a ring device. […] Tumor size was measured daily, beginning on Day 0 (first day of treatment) and every other day after Day 3 until NIH humane endpoint criteria were met for euthanasia.
FIG. 7 depicts in vivo validation of the therapeutic efficacy of pulsed electric fields (PEFs) inducing osmotic lysis in comparison to paclitaxel in a breast cancer mouse model. […] Homografts were measured on post-inoculation day 6 (treatment day 0), and again on post-treatment days 1 and 2 and then every other day until the criteria for humane endpoint euthanasia was met. […]

SMILES: CC(=O)O[C@H]1C(=O)[C@@]2(C)[C@H]([C@H](OC(=O)c3ccccc3)[C@]3(O)C[C@H](OC(=O)[C@H](O)[C@@H](NC(=O)c4ccccc4)c4ccccc4)C(C)=C1C3(C)C)[C@]1(OC(C)=O)CO[C@@H]1C[C@@H]2O [paclitaxel]
- VGSC expression [1]: decreases significantly and progressively
- time from inoculation to humane endpoint euthanasia (survival) [2]: no significant effect on survival over controls
